Experimental data published in patent US20200239530A1, “COMPOUNDS AND METHODS OF MODULATING PROTEIN DEGRADATION” (Vividion Therapeutics, Inc., priority 2017, published 2020).
Read-outs that look alike come from different tables or passages of the source.

How the values were obtained:
Assay in all cases: Cysteine liganding, probe competition
Assay type in all cases: binding
UniProt Q96JY6 = target: T1, UniProt Q96JY6 (Homo sapiens, UniProt Q96JY6)
T1 construct: 200 μL of lysate containing 5 mg/ml proteome was treated with 2 μL of 100× compound stock; endogenous in cells
T1 sequence (Q96JY6 1-352): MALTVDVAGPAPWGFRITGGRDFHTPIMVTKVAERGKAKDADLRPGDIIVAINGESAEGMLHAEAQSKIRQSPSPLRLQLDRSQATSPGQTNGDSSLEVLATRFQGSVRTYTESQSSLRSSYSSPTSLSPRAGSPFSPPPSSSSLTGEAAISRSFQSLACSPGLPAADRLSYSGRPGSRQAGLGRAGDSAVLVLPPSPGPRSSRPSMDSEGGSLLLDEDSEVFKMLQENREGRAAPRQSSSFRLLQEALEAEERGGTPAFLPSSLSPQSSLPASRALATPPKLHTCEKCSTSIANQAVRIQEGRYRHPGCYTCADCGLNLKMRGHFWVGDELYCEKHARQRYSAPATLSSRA
Excerpt: (§1) The following 96-well sample prep protocol was used for sample preparation.

UniProt Q13829 = target: T2, UniProt Q13829 (Homo sapiens, UniProt Q13829)
T2 construct: 200 μL of lysate containing 5 mg/ml proteome was treated with 2 μL of 100× compound stock; endogenous in cells
T2 sequence (Q13829 1-316): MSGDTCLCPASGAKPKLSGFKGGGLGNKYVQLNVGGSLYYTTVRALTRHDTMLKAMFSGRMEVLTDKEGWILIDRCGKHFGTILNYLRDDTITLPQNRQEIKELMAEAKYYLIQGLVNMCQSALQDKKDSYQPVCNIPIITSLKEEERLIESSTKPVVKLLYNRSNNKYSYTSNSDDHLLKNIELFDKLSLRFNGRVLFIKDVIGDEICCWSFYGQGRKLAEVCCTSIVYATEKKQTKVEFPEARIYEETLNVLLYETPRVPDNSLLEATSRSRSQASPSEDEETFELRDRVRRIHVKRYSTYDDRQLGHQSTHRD
Excerpt: as §1

UniProt P46934 = target: T3, UniProt P46934 (Homo sapiens, UniProt P46934)
T3 construct: Cells were resuspended in cold PBS on ice and sonicated with a probe sonicator to achieve lysis; endogenous in cells
T3 sequence (P46934 1-1319): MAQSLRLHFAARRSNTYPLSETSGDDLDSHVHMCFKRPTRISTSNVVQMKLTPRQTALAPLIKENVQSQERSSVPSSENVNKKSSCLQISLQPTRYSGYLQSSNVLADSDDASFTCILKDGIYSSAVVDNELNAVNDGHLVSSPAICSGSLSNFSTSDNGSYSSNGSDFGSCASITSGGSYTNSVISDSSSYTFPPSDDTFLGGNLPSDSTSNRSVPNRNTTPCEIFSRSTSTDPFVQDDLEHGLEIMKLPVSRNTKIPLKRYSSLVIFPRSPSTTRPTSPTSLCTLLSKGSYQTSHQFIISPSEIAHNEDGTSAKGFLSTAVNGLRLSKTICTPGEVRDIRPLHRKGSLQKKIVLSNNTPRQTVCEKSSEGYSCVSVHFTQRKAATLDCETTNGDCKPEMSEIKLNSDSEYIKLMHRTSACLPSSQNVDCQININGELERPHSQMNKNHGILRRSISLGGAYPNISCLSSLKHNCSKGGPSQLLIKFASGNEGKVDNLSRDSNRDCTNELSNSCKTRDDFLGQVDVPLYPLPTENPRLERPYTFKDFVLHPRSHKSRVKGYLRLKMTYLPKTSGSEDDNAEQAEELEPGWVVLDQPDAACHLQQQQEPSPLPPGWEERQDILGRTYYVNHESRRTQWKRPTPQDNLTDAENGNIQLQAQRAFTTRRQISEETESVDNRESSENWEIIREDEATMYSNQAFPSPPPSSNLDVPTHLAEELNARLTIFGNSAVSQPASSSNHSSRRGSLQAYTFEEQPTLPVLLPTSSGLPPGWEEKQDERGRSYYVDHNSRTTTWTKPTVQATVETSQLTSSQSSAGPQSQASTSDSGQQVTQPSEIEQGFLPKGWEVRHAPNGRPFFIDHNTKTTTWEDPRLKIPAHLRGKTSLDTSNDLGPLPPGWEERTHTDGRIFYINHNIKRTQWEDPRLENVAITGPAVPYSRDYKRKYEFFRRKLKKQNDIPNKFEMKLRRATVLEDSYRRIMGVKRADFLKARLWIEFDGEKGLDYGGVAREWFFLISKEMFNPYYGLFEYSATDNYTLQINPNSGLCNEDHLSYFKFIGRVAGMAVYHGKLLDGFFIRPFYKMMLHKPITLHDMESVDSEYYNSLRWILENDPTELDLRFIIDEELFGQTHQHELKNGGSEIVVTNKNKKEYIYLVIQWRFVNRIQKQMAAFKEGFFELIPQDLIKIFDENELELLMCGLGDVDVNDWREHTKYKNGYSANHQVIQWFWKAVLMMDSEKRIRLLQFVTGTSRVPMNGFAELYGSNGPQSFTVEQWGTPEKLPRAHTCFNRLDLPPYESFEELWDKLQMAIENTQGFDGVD
Excerpt: as §1

UniProt Q9HBE1 = target: T4, UniProt Q9HBE1 (Homo sapiens, UniProt Q9HBE1)
T4 construct: Cells were resuspended in cold PBS on ice and sonicated with a probe sonicator to achieve lysis; endogenous in cells
Excerpt: as §1

UniProt Q9H992 = target: T5, UniProt Q9H992 (Homo sapiens, UniProt Q9H992)
T5 construct: Cells were resuspended in cold PBS on ice and sonicated with a probe sonicator to achieve lysis; endogenous in cells
Excerpt: as §1

UniProt Q969K3 = target: T6, UniProt Q969K3 (Homo sapiens, UniProt Q969K3)
T6 construct: 200 μL of lysate containing 5 mg/ml proteome was treated with 2 μL of 100× compound stock; endogenous in cells
Excerpt: as §1

UniProt Q9BZR9 = target: T7, UniProt Q9BZR9 (Homo sapiens, UniProt Q9BZR9)
T7 construct: 200 μL of lysate containing 5 mg/ml proteome was treated with 2 μL of 100× compound stock; endogenous in cells
T7 sequence (Q9BZR9 1-551): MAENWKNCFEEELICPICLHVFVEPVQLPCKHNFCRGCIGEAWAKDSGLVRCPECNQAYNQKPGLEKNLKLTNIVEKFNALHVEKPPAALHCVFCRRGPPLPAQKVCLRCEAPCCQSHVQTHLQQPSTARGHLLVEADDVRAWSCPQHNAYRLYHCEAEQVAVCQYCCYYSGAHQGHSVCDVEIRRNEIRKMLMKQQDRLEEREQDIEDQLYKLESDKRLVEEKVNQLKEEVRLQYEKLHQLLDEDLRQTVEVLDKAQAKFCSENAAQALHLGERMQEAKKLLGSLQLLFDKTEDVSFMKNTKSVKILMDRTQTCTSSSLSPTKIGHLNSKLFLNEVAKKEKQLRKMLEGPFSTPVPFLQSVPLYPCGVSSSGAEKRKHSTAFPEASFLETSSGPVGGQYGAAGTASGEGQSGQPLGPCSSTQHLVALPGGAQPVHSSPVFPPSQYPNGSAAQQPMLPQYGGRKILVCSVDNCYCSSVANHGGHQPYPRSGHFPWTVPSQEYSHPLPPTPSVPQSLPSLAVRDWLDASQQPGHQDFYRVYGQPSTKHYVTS
Excerpt: as §1

[1] = 100 uM, read-out: percent_inhibition
[2] = read-out: KB05_100 uM_percent_inhibition

T4 sequence (Q9HBE1 whole entry, change not shown): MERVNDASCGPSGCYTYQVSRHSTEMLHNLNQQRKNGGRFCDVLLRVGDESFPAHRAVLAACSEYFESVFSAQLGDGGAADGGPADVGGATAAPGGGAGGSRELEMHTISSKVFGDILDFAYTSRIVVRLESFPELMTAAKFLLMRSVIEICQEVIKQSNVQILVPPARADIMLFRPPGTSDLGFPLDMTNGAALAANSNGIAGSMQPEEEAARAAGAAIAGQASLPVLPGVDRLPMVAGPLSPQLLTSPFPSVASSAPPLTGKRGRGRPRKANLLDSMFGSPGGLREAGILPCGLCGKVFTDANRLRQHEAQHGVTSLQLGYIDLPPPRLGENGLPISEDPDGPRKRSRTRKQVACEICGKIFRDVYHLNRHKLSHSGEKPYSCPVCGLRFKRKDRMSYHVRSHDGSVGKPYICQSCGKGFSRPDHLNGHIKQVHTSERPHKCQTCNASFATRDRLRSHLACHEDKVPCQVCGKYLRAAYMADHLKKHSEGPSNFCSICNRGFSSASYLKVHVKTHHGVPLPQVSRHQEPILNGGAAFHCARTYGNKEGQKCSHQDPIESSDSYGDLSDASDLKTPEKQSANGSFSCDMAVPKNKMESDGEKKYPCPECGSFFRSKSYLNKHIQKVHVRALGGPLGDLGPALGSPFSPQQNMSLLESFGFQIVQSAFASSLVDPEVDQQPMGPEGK
T5 sequence (Q9H992 whole entry, change not shown): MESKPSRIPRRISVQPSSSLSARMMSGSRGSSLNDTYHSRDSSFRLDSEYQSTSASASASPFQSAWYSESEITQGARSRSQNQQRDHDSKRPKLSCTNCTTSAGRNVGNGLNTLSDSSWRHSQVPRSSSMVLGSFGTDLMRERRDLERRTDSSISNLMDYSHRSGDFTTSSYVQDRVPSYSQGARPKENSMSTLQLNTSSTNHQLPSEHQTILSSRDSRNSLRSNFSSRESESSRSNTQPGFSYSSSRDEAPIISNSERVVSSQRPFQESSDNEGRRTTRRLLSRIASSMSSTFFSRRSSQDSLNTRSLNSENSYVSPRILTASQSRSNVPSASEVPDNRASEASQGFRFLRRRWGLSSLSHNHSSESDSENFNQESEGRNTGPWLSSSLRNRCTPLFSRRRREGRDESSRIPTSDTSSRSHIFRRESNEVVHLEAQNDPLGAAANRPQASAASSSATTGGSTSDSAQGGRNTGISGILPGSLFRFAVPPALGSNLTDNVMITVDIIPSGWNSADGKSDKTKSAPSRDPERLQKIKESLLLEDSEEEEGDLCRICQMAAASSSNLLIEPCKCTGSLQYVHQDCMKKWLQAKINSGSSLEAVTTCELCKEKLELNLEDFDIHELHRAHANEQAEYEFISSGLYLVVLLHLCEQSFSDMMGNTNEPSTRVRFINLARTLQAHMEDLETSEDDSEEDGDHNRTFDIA
T6 sequence (Q969K3 whole entry, change not shown): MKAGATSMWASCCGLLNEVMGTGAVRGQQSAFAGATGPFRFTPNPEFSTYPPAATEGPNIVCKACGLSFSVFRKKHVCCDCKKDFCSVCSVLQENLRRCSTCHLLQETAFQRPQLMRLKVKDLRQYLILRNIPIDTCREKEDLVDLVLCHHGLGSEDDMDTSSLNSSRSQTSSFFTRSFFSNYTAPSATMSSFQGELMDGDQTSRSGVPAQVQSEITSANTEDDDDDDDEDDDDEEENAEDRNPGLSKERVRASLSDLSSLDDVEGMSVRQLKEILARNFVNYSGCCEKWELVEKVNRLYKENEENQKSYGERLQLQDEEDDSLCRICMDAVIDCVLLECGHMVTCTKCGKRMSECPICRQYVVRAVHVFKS

COc1ccc2c(c1)CCCN2C(=O)CCl [KB02]
inhibition at 100 µM (UniProt Q96JY6; read-out: KB02_100 uM_percent_inhibition): 23%
percent_inhibition (UniProt Q13829; 100 uM): 4%
inhibition at 100 µM (UniProt Q13829; [1]): 8%
percent_inhibition (UniProt Q13829; 500 uM): 9%
inhibition at 500 µM (UniProt Q13829; 500 uM, read-out: percent_inhibition): 15%

C=CC(=O)N(c1ccccc1)c1ccc(Br)cc1 [KB05]
inhibition at 100 µM (UniProt Q96JY6; [2]): 33%
inhibition at 500 µM (UniProt Q96JY6; 500 uM, read-out: KB05_500 uM_percent_inhibition): 36%
inhibition at 100 µM (UniProt P46934; 100 uM, read-out: percent inhibition): 52%
inhibition at 500 µM (UniProt P46934; 500 uM, read-out: percent inhibition): 53%
inhibition at 100 µM (UniProt Q9HBE1; [2]): 45%
inhibition at 100 µM (UniProt Q9H992; read-out: percent inhibition): 21%
inhibition at 100 µM (UniProt Q969K3; read-out: percent_inhibition): 8%
KB05_100 uM_percent_inhibition (UniProt Q9BZR9; 100 uM): 16%
inhibition at 100 µM (UniProt Q9BZR9; [2]): 10%
inhibition at 100 µM (UniProt Q13829; [1]): 7%

O=C(CCl)Nc1cc(C(F)(F)F)cc(C(F)(F)F)c1 [KBO3]
percent inhibition (UniProt P46934; 100 uM): 71%
percent inhibition (UniProt P46934; 500 uM): 76%
KB03_100 uM_percent_inhibition (UniProt Q9HBE1; 100 uM): 72%
percent inhibition (UniProt Q9H992; 100 uM): 82%
percent_inhibition (UniProt Q969K3; 100 uM): 18%
KB03_100 uM_percent_inhibition (UniProt Q9BZR9; 100 uM): 39%
